Legend:
Assay type in all cases: biochemical
HaloTag7 (HT7) [1] = target: T1, HaloTag7 (HT7) (Rhodococcus sp., UniProt P59336, A155T/A167V/A224E/C128F/C176G/D78G/E160K/E257K/G292T/H272N/K175M/K195N/L47V/L88M/N227D/P291S/S2A/S58T/T264A/V172T/Y273L/Y87F); test: HT7 competitive labeling kinetics against CA-Alexa488; conditions: HT7, nonfluorescent substrates, competition with CA-Alexa488, 37 °C
T1 construct: made in house; host or cells: E. coli BL21(DE3)-pLysS
Method: Competitive kinetics were measured by recording FP over time using a microplate reader (Spark20M, Tecan). The final concentrations of CA-Alexa488 (50 nM) and HT7 protein (200 nM) remained constant with varying concentrations of nonfluorescent substrates (0–1 μM) in activity buffer supplemented with 0.5 g/L BSA. Assays were performed in black nonbinding flat bottom 96-well plates with a final reaction volume of 200 μL. Labeling reactions were started by adding the HT7 protein to wells containing CA-Alexa488 and nonfluorescent substrates using an electronic 96-channel pipettor (Integra Bioscience Corp., Hudson, NH). The FP of free CA-Alexa488 was measured to obtain a baseline.
(§1) Data were fitted to a simplified kinetic competition model (eqs 19 and 20) described by differential eqs 21–25 using DynaFit. The dead time of the measurements and baseline FP value were put in as fixed parameters. Standard deviations (normal distribution verified) and confidence intervals of fitted parameters were estimated with the Monte Carlo method with standard settings (N = 1000, 5% worst fits discarded). [drawing 19] 19 [drawing 20] 20 where P is the SLP protein, S is the fluorescent SLP substrate, I is the nonfluorescent SLP substrate (inhibitor), PS is the protein–fluorescent substrate conjugate, and PI is the protein–nonfluorescent substrate conjugate. [drawing 21] 21 [drawing 22] 22 [drawing 23] 23 [drawing 24] 24 [drawing 25] 25

HaloTag7 (HT7) [2] = target: T1, HaloTag7 (HT7); test: HT7 labeling kinetics via stopped flow (fluorescence anisotropy)
Method: Labeling kinetics of HT7 with CA-TMR, CA-JF549, CA-CPY, CA-LIVE580, and CA-JF669 and labeling kinetics of HOB with CA-TMR were measured by recording fluorescence anisotropy changes over time using a BioLogic SFM-400 stopped-flow instrument (BioLogic Science Instruments, Claix, France) in a single-mixing configuration at 37 °C. HT7 protein and substrates in activity buffer were mixed in a 1:1 stoichiometry to reach a recordable speed for these fast reactions and to increase the information content of the traces. Concentrations were varied from 0.125 to 1 μM. The anisotropy of the free substrate was measured to obtain a baseline.
Kinetic stopped-flow data were preprocessed using a custom R script.[36],[37] Recorded pretrigger time points were removed, and time points were adjusted to start at time zero. Values from replicates were averaged. The anisotropy of the free dye was calculated by averaging anisotropy values of the baseline measurements. Preprocessed data were fitted to a kinetic model (eqs 5 and 6) described by differential eqs 7–10 using the DynaFit software.[38] The anisotropy of the free dye and the mixing delay of the stopped-flow machine were set as fixed offset and delay parameters in DynaFit. It was assumed that the protein substrate complex and the reacted product are contributing equally to the anisotropy signal. […] Standard deviations (normal distribution verified) and confidence intervals of fitted parameters were estimated with the Monte Carlo method[39] with standard settings (N = 1000, 5% worst fits discarded). In the case of SNAP kinetics with BG-TMR, the substrate concentration was fitted by DynaFit to rule out quantification errors of the BG-quenched fluorophore. Accurate fitting of the concentration was ensured by including conditions in which protein is limiting and no maximum FP value was reached.

SNAP-tag (SNAP) [3] = target: T2, SNAP-tag (SNAP) (Homo sapiens, UniProt P16455, A127T/A154D/C150Q/C62A/G131K/G132T/G153L/K125A/K32I/L33F/M134L/N157G/Q115S/Q116H/R128A/R135S/S151G/S152D/S159E); test: SNAP competitive labeling kinetics against BG-Alexa488; conditions: nonfluorescent substrates, competition with BG-Alexa488
T2 construct: made in house; host or cells: E. coli BL21(DE3)-pLysS
T2 sequence (P16455 1-182 K32I/L33F/C62A/Q115S/Q116H/K125A/A127T/R128A/G131K/G132T/M134L/R135S/C150Q/S151G/S152D/G153L/A154D/N157G/S159E limits assumed): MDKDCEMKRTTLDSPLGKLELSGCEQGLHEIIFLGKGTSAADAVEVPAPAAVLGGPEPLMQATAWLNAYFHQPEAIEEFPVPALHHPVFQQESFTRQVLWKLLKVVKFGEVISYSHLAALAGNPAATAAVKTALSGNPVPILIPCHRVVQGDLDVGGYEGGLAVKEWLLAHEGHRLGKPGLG
Method: Competitive kinetics were measured by recording FP over time using a microplate reader in a manner analogous to that for HT7 competition kinetics described above using 100 nM BG-Alexa488 as the fluorescent substrate in SNAP-FP buffer.
as §1

SNAP-tag (SNAP) [4] = target: T2, SNAP-tag (SNAP); test: SNAP labeling kinetics via microplate reader (FP over time); conditions: SNAP, plate reader, third kinetic model with slow aging event (*)
Method: Labeling kinetics of SNAP and CLIP substrates were measured by recording FP over time using a microplate reader in a manner analogous to that of HT7 labeling kinetics described above with the following changes. The fluorescent substrate concentration was fixed to 20 nM, and protein concentrations were varied from 15 to 900 nM. Measurements were performed in SNAP-FP buffer.
Kinetic data from microplate reader assays were fitted to a simplified kinetic model (eq 13) described by differential eqs 14–16 using DynaFit. The dead time of the measurements and baseline FP value were put in as fixed parameters. Standard deviations (normal distribution verified) and confidence intervals of fitted parameters were estimated with the Monte Carlo method with standard settings (N = 1000, 5% worst fits discarded). In the case of BG, CP, and BC kinetics, the substrate concentration was fitted by DynaFit to rule out quantification errors of the BG, CP, or BC fluorophores. Accurate fitting of the concentration was ensured by including conditions under which protein is limiting and no maximum FP value was reached.

T1 sequence (P59336 other isoform, or with tags, fused parts or gaps with the stated changes): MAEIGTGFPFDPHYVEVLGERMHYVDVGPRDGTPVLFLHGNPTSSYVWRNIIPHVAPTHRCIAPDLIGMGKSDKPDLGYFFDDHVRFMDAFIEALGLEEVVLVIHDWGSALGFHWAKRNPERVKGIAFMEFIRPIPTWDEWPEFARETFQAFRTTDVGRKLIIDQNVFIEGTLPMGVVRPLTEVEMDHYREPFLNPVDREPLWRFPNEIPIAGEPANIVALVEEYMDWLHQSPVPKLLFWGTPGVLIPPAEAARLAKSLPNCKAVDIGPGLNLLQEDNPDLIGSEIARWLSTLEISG

## O=C(NCCOCCOCCCCCCCl)C1CC2C=CC1C2 (stereo not drawn) [CA-Nor1]
HaloTag7 (HT7) [1]
  kapp (value ± standard deviation): (6.68 ± 0.06) × 10^3 M^–1 s^–1

## O=C(CC1CC2C=CC1C2)NCCOCCOCCCCCCCl (stereo not drawn) [CA-Nor2]
HaloTag7 (HT7) [1]
  kapp (value ± standard deviation): (6.15 ± 0.07) × 10^3 M^–1 s^–1

## [N-]=[N+]=Nc1ccc(C(=O)NCCOCCOCCCCCCCl)cc1 [CA-PhN3]
HaloTag7 (HT7) [1]
  kapp (value ± standard deviation): (2.14 ± 0.02) × 10^4 M^–1 s^–1

## O=C(NCCOCCOCCCCCCCl)OC1C#CCCCCC1 (stereo not drawn) [CA-SCO]
HaloTag7 (HT7) [1]
  kapp (value ± standard deviation): (2.52 ± 0.05) × 10^5 M^–1 s^–1

## CN(CCCC(=O)NCCOCCOCCOCCNC(=O)CCCC[C@H]1SC[C@H]2NC(=O)N[C@H]21)c1ccc2c(-c3cc(C(=O)NCCOCCOCCCCCCCl)ccc3C(=O)[O-])c3ccc(=[N+](C)C)cc-3oc2c1 [CA-TMR-biotin]
HaloTag7 (HT7) [2]; HT7
  fold increase in labeling kinetics relative to CA-PEG-biotin: > 500 fold
HaloTag7 (HT7) [2]; HT7, stopped flow, model 2
  k2 (± S.D.): 8.24 (± 0.28) s-1

## Cc1nnc(-c2ccc(CC(=O)NCCOCCOCCCCCCCl)cc2)nn1 [CA-Tz]
HaloTag7 (HT7) [1]
  kapp (value ± standard deviation): (3.13 ± 0.03) × 10^4 M^–1 s^–1

## C=Cc1ccc(C(=O)NCCOCCOCCCCCCCl)cc1 [CA-Vbn]
HaloTag7 (HT7) [1]
  kapp (value ± standard deviation): (8.68 ± 0.07) × 10^3 M^–1 s^–1

## Nc1nc(Cl)cc(OCc2ccc(CNC(=O)OC[C@@H]3[C@@H]4CCC#CCC[C@@H]43)cc2)n1 [CP-BCN]
SNAP-tag (SNAP) [3]
  kapp (value ± standard deviation): (3.34 ± 0.31) × 10^3 M^–1 s^–1

## CN(C)c1ccc2c(c1)C(C)(C)C1=CC(=[N+](C)C)C=CC1=C2c1cc(C(=O)NCc2ccc(COc3cc(Cl)nc(N)n3)cc2)ccc1C(=O)[O-] [CP-CPY]
SNAP-tag (SNAP) [4]
  kapp (value ± standard deviation): (1.59 ± 0.01) × 10^4 ^* M^–1 s^–1

## [N-]=[N+]=NCC(=O)NCc1ccc(COc2cc(Cl)nc(N)n2)cc1 [CP-N3]
SNAP-tag (SNAP) [3]
  kapp (value ± standard deviation): (6.36 ± 0.41) × 10^3 M^–1 s^–1

## Nc1nc(Cl)cc(OCc2ccc(CNC(=O)C3CC4C=CC3C4)cc2)n1 (stereo not drawn) [CP-Nor1]
SNAP-tag (SNAP) [3]
  kapp (value ± standard deviation): (1.77 ± 0.04) × 10^4 M^–1 s^–1

## [N-]=[N+]=Nc1ccc(C(=O)NCc2ccc(COc3cc(Cl)nc(N)n3)cc2)cc1 [CP-PhN3]
SNAP-tag (SNAP) [3]
  kapp (value ± standard deviation): (2.91 ± 0.40) × 10^3 M^–1 s^–1

## Nc1nc(Cl)cc(OCc2ccc(CNC(=O)OC3C#CCCCCC3)cc2)n1 (stereo not drawn) [CP-SCO]
SNAP-tag (SNAP) [3]
  kapp (value ± standard deviation): (4.22 ± 0.61) × 10^3 M^–1 s^–1

## C=Cc1ccc(C(=O)NCc2ccc(COc3cc(Cl)nc(N)n3)cc2)cc1 [CP-Vbn]
SNAP-tag (SNAP) [3]
  kapp (value ± standard deviation): (5.50 ± 0.45) × 10^3 M^–1 s^–1
